Patent publication US10294202B2, “Pyrrolidinones as herbicides” (FMC Corporation, priority 2013, dated 2019)

Tests used:
corn = assay: Test A pre-/postemergence herbicide test; format: in vivo, Zea mays; conditions: Postemergence; for Plant response rating, Corn: 125 g ai/ha, 0 to 100 scale, 0 no effect, 100 complete control; for Corn plant response rating (0 to 100 scale, 0 is no effect, 100 is complete control): 500 g ai/ha
Procedure, shortened: (§1)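 Approximately 10 days after treatment in the greenhouse, plants were compared with untreated controls and given a 0–100 visual injury rating. Applications: preemergence directed soil spray; postemergence on 2–10 cm plants at the one- to two-leaf stage.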

barnyardgrass [1] = assay: Test B flooded paddy test; format: in vivo, Echinochloa crus-galli; conditions: 500 g ai/ha, Flood; scale of 0 to 100 where 0 is no effect and 100 is complete control
Procedure, shortened: (§2)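 Visual ratings from 0, meaning no effect, up to 100, meaning complete control, were made by comparison with untreated controls 13 to 15 days after treatment. Test compounds went straight into floodwater standing 3 cm over the soil of pots holding 2-leaf seedlings.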

pigweed = assay: Test A pre-/postemergence herbicide test; format: in vivo, Amaranthus retroflexus; conditions: for Plant response rating, Pigweed: 0 to 100 scale
Procedure, shortened: as §1

barnyardgrass [2] = assay: Test A pre-/postemergence herbicide test; format: in vivo, Echinochloa crus-galli
Procedure, shortened: as §1

ryegrass, Italian = assay: Test A pre-/postemergence herbicide test; format: in vivo, Lolium multiflorum; conditions: for Plant response rating, Ryegrass, Italian: 0 to 100 scale
Procedure, shortened: as §1

rice = assay: Test B flooded paddy test; format: in vivo, Oryza sativa; conditions: 500 g ai/ha, Flood; scale of 0 to 100 where 0 is no effect and 100 is complete control
Procedure, shortened: as §2

ragweed = assay: Test A pre-/postemergence herbicide test; format: in vivo, Ambrosia elatior; conditions: for Plant response rating, Ragweed: 0 to 100 scale
Procedure, shortened: as §1

galium = assay: Test A postemergence herbicide test; format: in vivo, Galium aparine; conditions: for Plant response rating, Galium: 125 g ai/ha, 0 to 100 scale, 0 no effect, 100 complete control; for Galium plant response rating (0 to 100 scale, 0 is no effect, 100 is complete control): 500 g ai/ha
Procedure, shortened: (§3)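 Plants at the one- to two-leaf stage, 2–10 cm tall, grown in loam/sand pots, received postemergence sprays of the test chemicals. After about 10 days in the greenhouse, injury was scored visually against untreated controls on a 0–100 scale (0 none, 100 complete control).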

ducksalad = assay: Test B flooded paddy test; format: in vivo, Heteranthera limosa; conditions: 500 g ai/ha, Flood; scale of 0 to 100 where 0 is no effect and 100 is complete control
Procedure, shortened: as §2

wheat = assay: Test A pre-/postemergence herbicide test; format: in vivo, Triticum aestivum; conditions: Postemergence; for Plant response rating, Wheat: 125 g ai/ha, 0 to 100 scale, 0 no effect, 100 complete control; for Wheat plant response rating (0 to 100 scale, 0 is no effect, 100 is complete control): 500 g ai/ha
Procedure, shortened: as §1

blackgrass = assay: Test A postemergence herbicide test; format: in vivo, Alopecurus myosuroides; conditions: for Plant response rating, Blackgrass: 125 g ai/ha, 0 to 100 scale, 0 no effect, 100 complete control; for Blackgrass plant response rating (0 to 100 scale, 0 is no effect, 100 is complete control): 500 g ai/ha
Procedure, shortened: as §3

sedge, umbrella = assay: Test B flooded paddy test; format: in vivo, Cyperus difformis; conditions: 500 g ai/ha, Flood; scale of 0 to 100 where 0 is no effect and 100 is complete control
Procedure, shortened: as §2

kochia = assay: Test A pre-/postemergence herbicide test; format: in vivo, Kochia scoparia; conditions: for Plant response rating, Kochia: 0 to 100 scale
Procedure, shortened: as §1

giant foxtail = assay: Test A pre-/postemergence herbicide test; format: in vivo, Setaria faberii; conditions: for Plant response rating, Foxtail, Giant: 0 to 100 scale
Procedure, shortened: as §1

[3] = 125 g ai/ha, visual rating, 0 no effect, 100 complete control, approximately 10 days, preemergence
[4] = Postemergence, 125 g ai/ha, 0 no effect, 100 complete control
[5] = 125 g ai/ha, visual rating, 0 to 100 scale, 0 no effect, 100 complete control, approximately 10 days, preemergence
[6] = Postemergence, 125 g ai/ha, 0 to 100 scale, 0 no effect, 100 complete control
[7] = preemergence, 500 g ai/ha, 0 to 100 scale (0 no effect, 100 complete control)

Structure (SMILES)	Plant response rating, Corn (corn)	Corn plant response rating (0 to 100 scale, 0 is no effect, 100 is complete control) (corn)	Plant response rating, Barnyardgrass (barnyardgrass [1])	Plant response rating, Pigweed (pigweed; [3])	Plant response rating, Pigweed (pigweed; [4])	Pigweed plant response rating (0 to 100 scale, 0 is no effect, 100 is complete control) (pigweed; Postemergence, 500 g ai/ha)	Plant response rating, Pigweed (pigweed; preemergence, 500 g ai/ha)	Plant response rating, Barnyardgrass (barnyardgrass [2]; [5])	Plant response rating, Barnyardgrass (barnyardgrass [2]; [6])	Barnyardgrass plant response rating (0 to 100 scale, 0 is no effect, 100 is complete control) (barnyardgrass [2]; Postemergence, 500 g ai/ha)	Plant response rating, Barnyardgrass (barnyardgrass [2]; [7])	Plant response rating, Ryegrass, Italian (ryegrass, Italian; [3])	Plant response rating, Ryegrass, Italian (ryegrass, Italian; [4])	Ryegrass, Italian plant response rating (0 to 100 scale, 0 is no effect, 100 is complete control) (ryegrass, Italian; Postemergence, 500 g ai/ha)	Plant response rating, Ryegrass, Italian (ryegrass, Italian; preemergence, 500 g ai/ha)	Plant response rating, Rice (rice)	Plant response rating, Ragweed (ragweed; [3])	Plant response rating, Ragweed (ragweed; [4])	Ragweed plant response rating (0 to 100 scale, 0 is no effect, 100 is complete control) (ragweed; Postemergence, 500 g ai/ha)	Plant response rating, Ragweed (ragweed; preemergence, 500 g ai/ha)	other results
COc1cc(C2CNC(=O)C2C(=O)Nc2ccc(F)cc2F)ccc1F (racemic) [Compound 131]	0	0	40	0	0	0	0	50	50	60	60	0	0	0	0	0	0	0	0	0	Plant response rating, Galium (galium): 0; Galium plant response rating (0 to 100 scale, 0 is no effect, 100 is complete control) (galium): 0; Plant response rating, Ducksalad (ducksalad): 70; Plant response rating, Wheat (wheat): 0; Wheat plant response rating (0 to 100 scale, 0 is no effect, 100 is complete control) (wheat): 0; Plant response rating, Blackgrass (blackgrass): 0; Blackgrass plant response rating (0 to 100 scale, 0 is no effect, 100 is complete control) (blackgrass): 0; Plant response rating, Sedge, Umbrella (sedge, umbrella): 30; Plant response rating, Kochia (kochia; [3]): 0; Plant response rating, Kochia (kochia; [4]): 0; Kochia plant response rating (0 to 100 scale, 0 is no effect, 100 is complete control) (kochia; Postemergence, 500 g ai/ha): 0; Plant response rating, Kochia (kochia; preemergence, 500 g ai/ha): 0; Plant response rating, Foxtail, Giant (giant foxtail; [3]): 50; Plant response rating, Foxtail, Giant (giant foxtail; [4]): 50; Foxtail, Giant plant response rating (0 to 100 scale, 0 is no effect, 100 is complete control) (giant foxtail; Postemergence, 500 g ai/ha): 50; Plant response rating, Foxtail, Giant (giant foxtail; preemergence, 500 g ai/ha): 60
COc1cc(C2CNC(=O)C2C(=O)Nc2ccc(F)c(F)c2F)ccc1F (racemic) [Compound 132]	0	0	40	0	0	0	0	70	60	80	90	0	0	0	0	0	0	0	0	0	Plant response rating, Galium (galium): 0; Galium plant response rating (0 to 100 scale, 0 is no effect, 100 is complete control) (galium): 0; Plant response rating, Ducksalad (ducksalad): 85; Plant response rating, Wheat (wheat): 0; Wheat plant response rating (0 to 100 scale, 0 is no effect, 100 is complete control) (wheat): 0; Plant response rating, Blackgrass (blackgrass): 0; Blackgrass plant response rating (0 to 100 scale, 0 is no effect, 100 is complete control) (blackgrass): 0; Plant response rating, Sedge, Umbrella (sedge, umbrella): 0; Plant response rating, Kochia (kochia; [3]): 0; Plant response rating, Kochia (kochia; [4]): 0; Kochia plant response rating (0 to 100 scale, 0 is no effect, 100 is complete control) (kochia; Postemergence, 500 g ai/ha): 10; Plant response rating, Kochia (kochia; preemergence, 500 g ai/ha): 0; Plant response rating, Foxtail, Giant (giant foxtail; [3]): 70; Plant response rating, Foxtail, Giant (giant foxtail; [4]): 50; Foxtail, Giant plant response rating (0 to 100 scale, 0 is no effect, 100 is complete control) (giant foxtail; Postemergence, 500 g ai/ha): 70; Plant response rating, Foxtail, Giant (giant foxtail; preemergence, 500 g ai/ha): 80
Cc1cc(C2CNC(=O)C2C(=O)Nc2ccccc2F)ccc1F (racemic) [Compound 139]	0	0	60	0	0	0	20	70	80	90	90	0	0	0	0	0	0	0	0	0	Plant response rating, Galium (galium): 0; Galium plant response rating (0 to 100 scale, 0 is no effect, 100 is complete control) (galium): 30; Plant response rating, Ducksalad (ducksalad): 100; Plant response rating, Wheat (wheat): 0; Wheat plant response rating (0 to 100 scale, 0 is no effect, 100 is complete control) (wheat): 0; Plant response rating, Blackgrass (blackgrass): 0; Blackgrass plant response rating (0 to 100 scale, 0 is no effect, 100 is complete control) (blackgrass): 20; Plant response rating, Sedge, Umbrella (sedge, umbrella): 0; Plant response rating, Kochia (kochia; [3]): 0; Plant response rating, Kochia (kochia; [4]): 0; Kochia plant response rating (0 to 100 scale, 0 is no effect, 100 is complete control) (kochia; Postemergence, 500 g ai/ha): 0; Plant response rating, Kochia (kochia; preemergence, 500 g ai/ha): 30; Plant response rating, Foxtail, Giant (giant foxtail; [3]): 50; Plant response rating, Foxtail, Giant (giant foxtail; [4]): 30; Foxtail, Giant plant response rating (0 to 100 scale, 0 is no effect, 100 is complete control) (giant foxtail; Postemergence, 500 g ai/ha): 30; Plant response rating, Foxtail, Giant (giant foxtail; preemergence, 500 g ai/ha): 90
Cc1cc(C2CNC(=O)C2C(=O)Nc2ccc(F)cc2F)ccc1F (racemic) [Compound 140]	0	0	70	0	0	0	0	80	70	80	90	0	0	0	0	0	0	0	0	0	Plant response rating, Galium (galium): 0; Galium plant response rating (0 to 100 scale, 0 is no effect, 100 is complete control) (galium): 30; Plant response rating, Ducksalad (ducksalad): 100; Plant response rating, Wheat (wheat): 0; Wheat plant response rating (0 to 100 scale, 0 is no effect, 100 is complete control) (wheat): 0; Plant response rating, Blackgrass (blackgrass): 0; Blackgrass plant response rating (0 to 100 scale, 0 is no effect, 100 is complete control) (blackgrass): 20; Plant response rating, Sedge, Umbrella (sedge, umbrella): 0; Plant response rating, Kochia (kochia; [3]): 0; Plant response rating, Kochia (kochia; [4]): 0; Kochia plant response rating (0 to 100 scale, 0 is no effect, 100 is complete control) (kochia; Postemergence, 500 g ai/ha): 0; Plant response rating, Kochia (kochia; preemergence, 500 g ai/ha): 0; Plant response rating, Foxtail, Giant (giant foxtail; [3]): 50; Plant response rating, Foxtail, Giant (giant foxtail; [4]): 0; Foxtail, Giant plant response rating (0 to 100 scale, 0 is no effect, 100 is complete control) (giant foxtail; Postemergence, 500 g ai/ha): 50; Plant response rating, Foxtail, Giant (giant foxtail; preemergence, 500 g ai/ha): 90
Cc1cc(C2CNC(=O)C2C(=O)Nc2cccc(F)c2F)ccc1F (racemic) [Compound 141]	0	50	50	0	0	0	0	90	80	90	90	0	0	40	20	0	0	0	40	0	Plant response rating, Galium (galium): 20; Galium plant response rating (0 to 100 scale, 0 is no effect, 100 is complete control) (galium): 50; Plant response rating, Ducksalad (ducksalad): 100; Plant response rating, Wheat (wheat): 0; Wheat plant response rating (0 to 100 scale, 0 is no effect, 100 is complete control) (wheat): 30; Plant response rating, Blackgrass (blackgrass): 0; Blackgrass plant response rating (0 to 100 scale, 0 is no effect, 100 is complete control) (blackgrass): 50; Plant response rating, Sedge, Umbrella (sedge, umbrella): 0; Plant response rating, Kochia (kochia; [3]): 0; Plant response rating, Kochia (kochia; [4]): 0; Kochia plant response rating (0 to 100 scale, 0 is no effect, 100 is complete control) (kochia; Postemergence, 500 g ai/ha): 20; Plant response rating, Kochia (kochia; preemergence, 500 g ai/ha): 20; Plant response rating, Foxtail, Giant (giant foxtail; [3]): 50; Plant response rating, Foxtail, Giant (giant foxtail; [4]): 0; Foxtail, Giant plant response rating (0 to 100 scale, 0 is no effect, 100 is complete control) (giant foxtail; Postemergence, 500 g ai/ha): 50; Plant response rating, Foxtail, Giant (giant foxtail; preemergence, 500 g ai/ha): 90
